Data on 11 compounds can be found in ChEMBL document CHEMBL4732090, “Preparation of new 1,3-dibenzyl tetrahydropyridinylidene ammonium salts and their antimicrobial and anticellular activities” (Eur J Med Chem, 2021).

By IC50 is commonly meant the concentration that gives 50% inhibition.

The first series deals with Plasmodium falciparum. Put plainly: Antiplasmodial activity against Plasmodium falciparum NF54 erythrocytic stages assessed as reduction in [3H]hypoxanthine incorporation measured after 48 hrs by liquid scintillation counting method. It counts as functional, organism-based.
Settings: not given
For `CC1(C)C(Cc2ccc([N+](=O)[O-])cc2)C(=[N+]2CCCC2)C=CN1Cc1ccccc1` (racemic), the IC50 came to 43 nM.
For `CC1(C)C(Cc2ccc(Br)cc2)C(=[N+]2CCCC2)C=CN1Cc1ccccc1` (racemic), the IC50 amounted to 7.7 nM.
Take `CC1(C)C(Cc2ccc(Cl)cc2Cl)C(=[N+]2CCCC2)C=CN1Cc1ccccc1` (racemic): the IC50 turned out to be 18 nM.
On the same count and under the same terms, next, `CC1(C)C(Cc2ccc(Cl)cc2)C(=[N+]2CCCC2)C=CN1Cc1ccccc1` (racemic): 17 nM.
The same measure, in the same setting: then `CC1(C)C(Cc2c(Cl)cccc2Cl)C(=[N+]2CCCC2)C=CN1Cc1ccccc1` (racemic), with 31 nM.

The subject of a further series is L6. Put plainly: Cytotoxicity against rat L6 cells after 70 hrs by Alamar blue assay. The format is cell-based. To be noted: L6, 70 h.
`COc1cc([C@@H]2c3cc4c(cc3[C@H](O)[C@H]3COC(=O)[C@H]23)OCO4)cc(OC)c1OC` [PODOFILOX] showed an IC50 of 12 nM.

Still in this series, the particulars now being: L6, 70 h, read-out: IC50.
Take `CC1(C)C(Cc2ccc([N+](=O)[O-])cc2)C(=[N+]2CCCC2)C=CN1Cc1ccccc1` (racemic): the IC50 worked out at 206000 nM.
On the same count and under the same terms, then `CC1(C)C(Cc2ccc(Br)cc2)C(=[N+]2CCCC2)C=CN1Cc1ccccc1` (racemic), with 34500 nM; and `CC1(C)C(Cc2ccc(Cl)cc2Cl)C(=[N+]2CCCC2)C=CN1Cc1ccccc1` (racemic), with 26100 nM.
The same measure, in the same setting: next, `CC1(C)C(Cc2ccc(Cl)cc2)C(=[N+]2CCCC2)C=CN1Cc1ccccc1` (racemic): 89500 nM; `CC1(C)C(Cc2c(Cl)cccc2Cl)C(=[N+]2CCCC2)C=CN1Cc1ccccc1` (racemic): 15000 nM; `CCN(CC)CCCC(C)Nc1ccnc2cc(Cl)ccc12` (stereo not drawn) [CHLOROQUINE]: 117000 nM.

A further series has as its system Candida albicans. Put plainly: Antifungal activity against Candida albicans ATCC 90028 assessed as diameter of inhibition zone at 10 mg/ml by disk diffusion assay. To be noted: read-out: DIZ. It counts as functional. On the technique in general: Agar diffusion results depend on both activity and mobility in agar.
As to `CC1(C)C(Cc2ccc([N+](=O)[O-])cc2)C(=[N+]2CCCC2)C=CN1Cc1ccccc1` (racemic), the zone of inhibition at 10000 µg/mL was 0 mm.
The same measure, in the same setting: then `CC1(C)C(Cc2ccc(Br)cc2)C(=[N+]2CCCC2)C=CN1Cc1ccccc1` (racemic), with 13 mm; and `CC1(C)C(Cc2ccc(Cl)cc2Cl)C(=[N+]2CCCC2)C=CN1Cc1ccccc1` (racemic), with 15 mm.
The same measure, in the same setting: then `CC1(C)C(Cc2ccc(Cl)cc2)C(=[N+]2CCCC2)C=CN1Cc1ccccc1` (racemic), with 11 mm; and `CC1(C)C(Cc2c(Cl)cccc2Cl)C(=[N+]2CCCC2)C=CN1Cc1ccccc1` (racemic), with 10 mm.
On the same count and under the same terms, next, `CC1(C)S[C@@H]2[C@H](NC(=O)[C@H](N)c3ccccc3)C(=O)N2[C@H]1C(=O)O` [AMPICILLIN]: 0 mm.
`O=C(O)c1cn(C2CC2)c2cc(N3CCNCC3)c(F)cc2c1=O` [CIPROFLOXACIN]: the zone of inhibition at 10000 µg/mL is 0 mm.
For `COc1cc(Cc2cnc(N)nc2N)cc(OC)c1OC` [TRIMETHOPRIM], the zone of inhibition at 10000 µg/mL worked out at 0 mm.

Test system in the next series: not listed separately
The experiment in a line: Selectivity index, ratio of IC50 for rat L6 cells to IC50 for Plasmodium falciparum NF54. The format is toxicity. To be noted: read-out: Ratio IC50.
In the case of `CC1(C)C(Cc2ccc([N+](=O)[O-])cc2)C(=[N+]2CCCC2)C=CN1Cc1ccccc1` (racemic), the selectivity ratio stood at 4800.
Same read-out and setting: then `CC1(C)C(Cc2ccc(Br)cc2)C(=[N+]2CCCC2)C=CN1Cc1ccccc1` (racemic), with 4480; and `CC1(C)C(Cc2ccc(Cl)cc2Cl)C(=[N+]2CCCC2)C=CN1Cc1ccccc1` (racemic), with 1450.
The same measure, in the same setting: next, `CC1(C)C(Cc2ccc(Cl)cc2)C(=[N+]2CCCC2)C=CN1Cc1ccccc1` (racemic): 5260; `CC1(C)C(Cc2c(Cl)cccc2Cl)C(=[N+]2CCCC2)C=CN1Cc1ccccc1` (racemic): 483.

In the next series the test system is Staphylococcus epidermidis. Put plainly: Antibacterial activity against Staphylococcus epidermis ATCC 12228 assessed as diameter of inhibition zone at 10 mg/ml by disk diffusion assay. It counts as functional. Particulars: read-out: DIZ.
Regarding `CC1(C)C(Cc2ccc([N+](=O)[O-])cc2)C(=[N+]2CCCC2)C=CN1Cc1ccccc1` (racemic), the zone of inhibition at 10000 µg/mL is 18 mm.
Turning to `CC1(C)C(Cc2ccc(Br)cc2)C(=[N+]2CCCC2)C=CN1Cc1ccccc1` (racemic), the zone of inhibition at 10000 µg/mL turned out to be 25 mm.
Still for that read-out and setting: next, `CC1(C)C(Cc2ccc(Cl)cc2Cl)C(=[N+]2CCCC2)C=CN1Cc1ccccc1` (racemic): 26 mm; `CC1(C)C(Cc2ccc(Cl)cc2)C(=[N+]2CCCC2)C=CN1Cc1ccccc1` (racemic): 21 mm.
On the same count and under the same terms, then `CC1(C)C(Cc2c(Cl)cccc2Cl)C(=[N+]2CCCC2)C=CN1Cc1ccccc1` (racemic), with 26 mm; and `CC1(C)S[C@@H]2[C@H](NC(=O)[C@H](N)c3ccccc3)C(=O)N2[C@H]1C(=O)O` [AMPICILLIN], with 45 mm.

The subject of a further series is Pseudomonas aeruginosa. Put plainly: Antibacterial activity against Pseudomonas aeruginosa ATCC 27853 assessed as diameter of inhibition zone at 10 mg/ml by disk diffusion assay. Particulars: read-out: DIZ. The format is functional.
Turning to `CC1(C)C(Cc2ccc([N+](=O)[O-])cc2)C(=[N+]2CCCC2)C=CN1Cc1ccccc1` (racemic), the zone of inhibition at 10000 µg/mL came to 0 mm.
The same measure, in the same setting: next, `CC1(C)C(Cc2ccc(Br)cc2)C(=[N+]2CCCC2)C=CN1Cc1ccccc1` (racemic): 0 mm; `CC1(C)C(Cc2ccc(Cl)cc2Cl)C(=[N+]2CCCC2)C=CN1Cc1ccccc1` (racemic): 0 mm.
On the same count and under the same terms, next, `CC1(C)C(Cc2ccc(Cl)cc2)C(=[N+]2CCCC2)C=CN1Cc1ccccc1` (racemic): 0 mm.
The same measure, in the same setting: next, `CC1(C)C(Cc2c(Cl)cccc2Cl)C(=[N+]2CCCC2)C=CN1Cc1ccccc1` (racemic): 7 mm.
With `CC1(C)S[C@@H]2[C@H](NC(=O)[C@H](N)c3ccccc3)C(=O)N2[C@H]1C(=O)O` [AMPICILLIN], the zone of inhibition at 10000 µg/mL worked out at 0 mm.
On to `O=C(O)c1cn(C2CC2)c2cc(N3CCNCC3)c(F)cc2c1=O` [CIPROFLOXACIN], for which the zone of inhibition at 10000 µg/mL was determined as 0 mm.
Same read-out and setting: next, `COc1cc(Cc2cnc(N)nc2N)cc(OC)c1OC` [TRIMETHOPRIM]: 0 mm.

Another series relates to Escherichia coli. The experiment in a line: Antibacterial activity against Escherichia coli ATCC 25922 assessed as diameter of inhibition zone at 10 mg/ml by disk diffusion assay. Particulars: read-out: DIZ. It counts as functional.
With `CC1(C)C(Cc2ccc([N+](=O)[O-])cc2)C(=[N+]2CCCC2)C=CN1Cc1ccccc1` (racemic), the zone of inhibition at 10000 µg/mL is 11 mm.
The same measure, in the same setting: then `CC1(C)C(Cc2ccc(Br)cc2)C(=[N+]2CCCC2)C=CN1Cc1ccccc1` (racemic), with 11 mm.
`CC1(C)C(Cc2ccc(Cl)cc2Cl)C(=[N+]2CCCC2)C=CN1Cc1ccccc1` (racemic): the zone of inhibition at 10000 µg/mL is 12 mm.
For `CC1(C)C(Cc2ccc(Cl)cc2)C(=[N+]2CCCC2)C=CN1Cc1ccccc1` (racemic), the zone of inhibition at 10000 µg/mL was determined as 8 mm.
For `CC1(C)C(Cc2c(Cl)cccc2Cl)C(=[N+]2CCCC2)C=CN1Cc1ccccc1` (racemic), the zone of inhibition at 10000 µg/mL was determined as 10 mm.
The same measure, in the same setting: next, `CC1(C)S[C@@H]2[C@H](NC(=O)[C@H](N)c3ccccc3)C(=O)N2[C@H]1C(=O)O` [AMPICILLIN]: 15 mm.

A further series relates to Staphylococcus aureus. Put plainly: Antibacterial activity against Staphylococcus aureus ATCC 29213 assessed as diameter of inhibition zone at 10 mg/ml by disk diffusion assay. The format is functional. Particulars: read-out: DIZ.
As for `CC1(C)C(Cc2ccc([N+](=O)[O-])cc2)C(=[N+]2CCCC2)C=CN1Cc1ccccc1` (racemic), the zone of inhibition at 10000 µg/mL came out at 15 mm.
On the same count and under the same terms, next, `CC1(C)C(Cc2ccc(Br)cc2)C(=[N+]2CCCC2)C=CN1Cc1ccccc1` (racemic): 22 mm; `CC1(C)C(Cc2ccc(Cl)cc2Cl)C(=[N+]2CCCC2)C=CN1Cc1ccccc1` (racemic): 22 mm; `CC1(C)C(Cc2ccc(Cl)cc2)C(=[N+]2CCCC2)C=CN1Cc1ccccc1` (racemic): 24 mm.
Same read-out and setting: next, `CC1(C)C(Cc2c(Cl)cccc2Cl)C(=[N+]2CCCC2)C=CN1Cc1ccccc1` (racemic): 23 mm; `O=C(O)c1cn(C2CC2)c2cc(N3CCNCC3)c(F)cc2c1=O` [CIPROFLOXACIN]: 14 mm; `COc1cc(Cc2cnc(N)nc2N)cc(OC)c1OC` [TRIMETHOPRIM]: 22 mm.

Test system in another series: not listed separately
Put plainly: Selectivity index, ratio of IC50 for rat L6 cells to IC50 for Trypanosoma brucei rhodesiense STIB900. The format is toxicity. Particulars: read-out: Ratio IC50.
For `CC1(C)C(Cc2ccc([N+](=O)[O-])cc2)C(=[N+]2CCCC2)C=CN1Cc1ccccc1` (racemic), the selectivity ratio is 37.9.
`CC1(C)C(Cc2ccc(Br)cc2)C(=[N+]2CCCC2)C=CN1Cc1ccccc1` (racemic): the selectivity ratio is 192.
Same read-out and setting: then `CC1(C)C(Cc2ccc(Cl)cc2Cl)C(=[N+]2CCCC2)C=CN1Cc1ccccc1` (racemic), with 237.
On the same count and under the same terms, next, `CC1(C)C(Cc2ccc(Cl)cc2)C(=[N+]2CCCC2)C=CN1Cc1ccccc1` (racemic): 179; `CC1(C)C(Cc2c(Cl)cccc2Cl)C(=[N+]2CCCC2)C=CN1Cc1ccccc1` (racemic): 238.
For `Nc1nc(N)nc(Nc2ccc([As]3SCC(CO)S3)cc2)n1` (stereo not drawn) [MELARSOPROL], the selectivity ratio worked out at 2000.

In another series the test system is Trypanosoma brucei rhodesiense. The experiment in a line: Trypanocidal activity against Trypanosoma brucei rhodesiense STIB900 incubated for 70 hrs by Alamar blue assay. The format is functional, organism-based. To be noted: STIB900, 70 h. In general terms: The colour change of resazurin is a common sign of viable cells or microbes.
Turning to `CC1(C)C(Cc2ccc([N+](=O)[O-])cc2)C(=[N+]2CCCC2)C=CN1Cc1ccccc1` (racemic), 5450 nM corresponded to half-maximal inhibition (IC50).
The same measure, in the same setting: next, `CC1(C)C(Cc2ccc(Br)cc2)C(=[N+]2CCCC2)C=CN1Cc1ccccc1` (racemic): 180 nM.
Same read-out and setting: then `CC1(C)C(Cc2ccc(Cl)cc2Cl)C(=[N+]2CCCC2)C=CN1Cc1ccccc1` (racemic), with 110 nM; and `CC1(C)C(Cc2ccc(Cl)cc2)C(=[N+]2CCCC2)C=CN1Cc1ccccc1` (racemic), with 500 nM.
On to `CC1(C)C(Cc2c(Cl)cccc2Cl)C(=[N+]2CCCC2)C=CN1Cc1ccccc1` (racemic), for which half-maximal inhibition (IC50) was put at 63 nM.
